Measurements reported in US20240217990A1 (Gilead Sciences, Inc., priority 2021, published 2024).
pEC50: −log10 of the molar value.

Columns and labels:
[1] = target: T1, TLR7 (Homo sapiens, UniProt Q9NYK1); experiment: TLR7 human PBMC cell-based assay (antagonist, GS-986 stimulated cytokine release); conditions: human PBMCs; TLR7 agonist GS-986 400 nM, 6 hours; cytokines (IL-6 and IFNα) in supernatant; read-out: TLR-7 EC50
T1 construct: Human peripheral blood mononuclear cells (PBMCs) consist of lymphocytes, monocytes and dendritic cells that express TLR7, TLR8 and TLR9; endogenous in cells; host or cells: cryopreserved human PBMCs from healthy donors
T1 sequence (Q9NYK1 27-1049): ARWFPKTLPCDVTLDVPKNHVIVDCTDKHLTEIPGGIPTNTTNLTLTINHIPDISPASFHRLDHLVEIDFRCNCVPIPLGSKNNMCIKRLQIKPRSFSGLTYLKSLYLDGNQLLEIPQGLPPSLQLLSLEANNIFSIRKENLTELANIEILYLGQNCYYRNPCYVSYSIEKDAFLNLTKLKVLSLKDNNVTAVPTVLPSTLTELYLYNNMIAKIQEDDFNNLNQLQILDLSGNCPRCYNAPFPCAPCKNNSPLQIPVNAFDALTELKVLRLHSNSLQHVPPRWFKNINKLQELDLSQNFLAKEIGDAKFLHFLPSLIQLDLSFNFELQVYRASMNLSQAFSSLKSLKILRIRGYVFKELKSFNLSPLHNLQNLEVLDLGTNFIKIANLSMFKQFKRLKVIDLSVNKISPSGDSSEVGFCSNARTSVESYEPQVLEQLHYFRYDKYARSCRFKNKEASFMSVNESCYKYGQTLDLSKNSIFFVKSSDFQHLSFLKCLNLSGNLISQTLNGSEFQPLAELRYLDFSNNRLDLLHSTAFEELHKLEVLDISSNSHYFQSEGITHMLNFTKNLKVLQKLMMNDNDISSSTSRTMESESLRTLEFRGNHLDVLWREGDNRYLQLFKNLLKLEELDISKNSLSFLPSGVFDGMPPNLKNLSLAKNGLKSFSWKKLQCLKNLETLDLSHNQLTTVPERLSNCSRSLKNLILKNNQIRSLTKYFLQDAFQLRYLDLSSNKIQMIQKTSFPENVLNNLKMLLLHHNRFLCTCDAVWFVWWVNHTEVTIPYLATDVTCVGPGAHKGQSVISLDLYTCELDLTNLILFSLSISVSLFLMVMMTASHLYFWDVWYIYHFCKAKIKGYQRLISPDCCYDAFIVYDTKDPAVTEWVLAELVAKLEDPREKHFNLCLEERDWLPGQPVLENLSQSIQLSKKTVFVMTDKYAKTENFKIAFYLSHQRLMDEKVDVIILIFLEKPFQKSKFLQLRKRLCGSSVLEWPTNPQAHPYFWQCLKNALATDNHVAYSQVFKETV
From the text: (§1) Human peripheral blood mononuclear cells (PBMCs) consist of lymphocytes, monocytes and dendritic cells that express TLR7, TLR8 and TLR9. These cells respond to TLR7, TLR8 and TLR9 ligand stimulation and produce cytokines and chemokines in vitro and in vivo. Human PBMCs are therefore suitable to be used in a cell-based assay to assess the in vitro potency of a TLR 7, 8, and/or 9 antagonist. The result is expected to be more translatable to the pharmacodynamics response in vivo than cell line-based assays.
Cryopreserved human PBMCs from healthy donors were thawed and resuspended in RPMI-1640 media with L-glutamine (Corning) supplemented with 10% Fetal Bovine Serum (Hyclone) and 1× Penicillin-Streptomycin (Corning). After counting, the cell density was adjusted to 2 million cells/ml and incubated for 1 hour at 37° C., 5% CO2 for recovery. Following the recovery, the cells were plated by adding 50 μl per well (100,000 cells) to 384-well cell culture plates (Greiner) containing 250 nl of test antagonists in 100% DMSO per well, in a 10 points dose response in quadruplicates. PBMCs were incubated in the presence of test antagonists for one hour at 37° C., 5% CO2 before being stimulated with a TLR7 or TLR9agonist. GS-986 (Gilead Sciences) was used as the TLR7 agonist at a final concentration of 400 nM. ODN-2216 (InvivoGen) was used as the TLR9 agonist at a final concentration of 3 μM. PBMCs were incubated in the presence of the test antagonist and the TLR7 (or TLR9) agonist for an additional 6 hours at 37° C., 5% CO2. At the end of the incubation, the cell culture plates were centrifuged at 500 g for 5 min, and the cell culture supernatant was collected. The level of cytokines (IL-6 and IFNα) in the supernatant was measured by electrochemiluminescence immunoassays (Mesoscale Discovery) following manufacturer's recommended protocols. The level of cytokine measured was plotted against the test antagonist concentration and fitted to a sigmoidal function to determine the EC50, which are shown below in Table 11.

[2] = target: T2, TLR8 (Homo sapiens, UniProt Q9NR97); experiment: TLR8 human PBMC cell-based assay (antagonist, Compound A stimulated cytokine release); conditions: human PBMCs; TLR8 agonist Compound A 800 nM, 6 hours; cytokines (TNFa and IL 12p40) in supernatant; read-out: TLR-8 EC50
T2 construct: Human peripheral blood mononuclear cells (PBMCs) consist of lymphocytes, monocytes and dendritic cells that express TLR7, TLR8 and TLR9; endogenous in cells; host or cells: cryopreserved human PBMCs from healthy donors
T2 sequence (Q9NR97 27-1041): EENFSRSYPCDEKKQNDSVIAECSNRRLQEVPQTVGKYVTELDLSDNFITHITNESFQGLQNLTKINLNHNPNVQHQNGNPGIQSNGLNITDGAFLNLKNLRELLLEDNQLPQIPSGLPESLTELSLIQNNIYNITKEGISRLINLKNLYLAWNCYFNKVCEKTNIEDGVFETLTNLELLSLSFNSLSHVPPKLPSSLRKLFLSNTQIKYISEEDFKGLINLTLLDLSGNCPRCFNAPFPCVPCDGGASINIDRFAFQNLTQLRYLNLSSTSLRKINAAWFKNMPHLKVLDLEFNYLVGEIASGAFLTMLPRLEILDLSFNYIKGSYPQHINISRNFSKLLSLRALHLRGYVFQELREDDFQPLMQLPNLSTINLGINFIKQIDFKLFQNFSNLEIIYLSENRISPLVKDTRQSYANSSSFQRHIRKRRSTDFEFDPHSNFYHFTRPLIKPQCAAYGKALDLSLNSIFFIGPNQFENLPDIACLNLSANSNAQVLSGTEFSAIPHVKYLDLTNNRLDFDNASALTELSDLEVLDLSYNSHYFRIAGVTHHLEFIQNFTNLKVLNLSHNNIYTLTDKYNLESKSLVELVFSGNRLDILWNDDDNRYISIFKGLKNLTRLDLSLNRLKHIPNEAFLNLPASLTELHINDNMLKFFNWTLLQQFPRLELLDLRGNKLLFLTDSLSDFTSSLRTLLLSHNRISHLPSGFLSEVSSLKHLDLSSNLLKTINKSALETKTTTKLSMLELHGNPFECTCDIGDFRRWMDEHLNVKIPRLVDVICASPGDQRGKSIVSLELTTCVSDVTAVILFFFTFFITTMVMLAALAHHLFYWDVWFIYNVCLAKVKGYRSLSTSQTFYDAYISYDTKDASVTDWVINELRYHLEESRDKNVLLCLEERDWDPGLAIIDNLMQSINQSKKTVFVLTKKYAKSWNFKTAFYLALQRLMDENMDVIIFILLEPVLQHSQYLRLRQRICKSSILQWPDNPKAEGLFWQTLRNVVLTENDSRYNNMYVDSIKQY
From the text: as §1
Cryopreserved human PBMCs from healthy donors were thawed and resuspended in RPMI-1640 media with L-glutamine (Corning) supplemented with 10% Fetal Bovine Serum (Hyclone) and 1X Penicillin-Streptomycin (Corning). After counting, the cell density was adjusted to 2 million cells/ml and incubated for 1 hour at 37° C., 5% CO2 for recovery. Following the recovery, the cells were plated by adding 50 μl per well (100,000 cells) to 384-well cell culture plates (Greiner) containing 250 nl of test antagonists in 100% DMSO per well, in a 10 points dose response in quadruplicates. PBMCs were incubated in the presence of antagonists for one hour at 37° C., 5% CO2 before being stimulated with TLR8 agonist. Compound A (Gilead Sciences, U.S. Pat. No. 10,285,990) was used as the TLR8 agonist at a final concentration of 800 nM. PBMCs were incubated in the presence of antagonist and the TLR8 agonist for an additional 6 hours at 37° C., 5% CO2. At the end of the incubation, the cell culture plates were centrifuged at 500 g for 5 min, and the cell culture supernatant was collected. The level of cytokines (TNFa and IL 12p40) in the supernatant was measured by electrochemiluminescence immunoassays (Mesoscale Discovery) following manufacturer's recommended protocols. The level of cytokine measured was plotted against the antagonist concentration and fitted to a sigmoidal function to determine the EC50, which are shown below in Table 11.

Row | Compound | pEC50 [1] | pEC50 [2]
1 | CCc1c(-c2cc(C)c3ncnn3c2)[nH]c2cc(-c3nc(N4CCNCC4)no3)sc12 [Example 47] | 9.22 | 8.68
2 | Cc1cc(-c2[nH]c3cc(-c4nnc(C5CCNCC5)s4)sc3c2C(C)C)cn2ncnc12 [Example 48, 6-isopropyl-5-(8-methyl-[1,2,4]triazolo[1,5-a]pyridin-6-yl)-2-(5-(piperidin-4-yl)-1,3,4-thiadiazol-2-yl)-4H-thieno[3,2-b]pyrrole] | 9.00 | 8.27
3 | Cc1cc(-c2[nH]c3cc(-c4nnc(N5CCNCC5)s4)sc3c2C(C)C)cn2ncnc12 [Example 49] | 9.40 | 8.49
4 | Cc1cc(-c2[nH]c3cc(C4=NC5(CCNCC5)CO4)sc3c2C(C)C)cn2ncnc12 [Example 50, 2-(6-isopropyl-5-(8-methyl-[1,2,4]triazolo[1,5-a]pyridin-6-yl)-4H-thieno[3,2-b]pyrrol-2-yl)-3-oxa-1,8-diazaspiro[4.5]dec-1-ene] | 9.70 | 8.34
5 | Cc1cc(-c2[nH]c3cc(-c4ccc(N5CCNCC5)nc4)sc3c2C(C)C)cc(C)n1 [Example 51, 5-(2,6-dimethyl-4-pyridyl)-6-isopropyl-2-(6-piperazin-1-yl-3-pyridyl)-4F1-thieno[3,2-b]pyrrole] | 7.68 | 7.21
6 | Cc1cc(-c2[nH]c3cc(-c4nnc(C5CCNCC5)o4)sc3c2C(C)C)cc(C)n1 [Example 52, 2-[5-(2,6-dimethyl-4-pyridyl)-6-isopropyl-4H-thieno[3,2-b]pyrrol-2-yl]-5-(4-piperidyl)-1,3,4-oxadiazole] | 7.44 | 7.80
7 | Cc1cc(-c2[nH]c3cc(-c4nnc(N5CCNCC5)o4)sc3c2C(C)C)cc(C)n1 [Example 53] | 7.13 | 7.80
8 | Cc1cc(-c2[nH]c3cc(-c4nc(N5CCNCC5)no4)sc3c2C(C)C)cc(C)n1 [Example 54, 5-[5-(2,6-dimethyl-4-pyridyl)-6-isopropyl-4H-thieno[3,2-b]pyrrol-2-yl]-3-piperazin-1-yl-1,2,4-oxadiazole] | 8.43 | 8.15
9 | Cc1cc(-c2[nH]c3cc(-c4nc(C5CCNCC5)no4)sc3c2C(C)C)cc(C)n1 [Example 55] | 8.12 | 7.83
10 | Cc1cc(-c2[nH]c3cc(C(=O)N(C)C4CCNCC4)sc3c2C(C)C)cn2ncnc12 [Example 56, 6-isopropyl-N-methyl-5-(8-methyl-[1,2,4]triazolo[1,5-a]pyridin-6-yl)-N-(4-piperidyl)-4H-thieno[3,2-b]pyrrole-2-carboxamide] | 9.30 | 7.99
11 | Cc1cc(-c2[nH]c3cc(C(=O)N(C)[C@@H]4CNC[C@@H]4F)sc3c2C(C)C)cn2ncnc12 [Example 57] | 8.77 | 7.90
12 | Cc1cc(-c2[nH]c3cc(C(=O)N(C)[C@H]4CNC[C@@H]4F)sc3c2C(C)C)cn2ncnc12 [Example 58] | 7.78 | 7.68
13 | Cc1cc(-c2[nH]c3cc(C(=O)N4C[C@H](N)C[C@H](C(F)(F)F)C4)sc3c2C(C)C)cn2ncnc12 [Example 59] | 7.62 | 7.81
14 | Cc1cc(-c2[nH]c3cc(C(=O)N(C)[C@@H]4CNC[C@H]4F)sc3c2C(C)C)cn2ncnc12 [Example 60] | 8.39 | 7.51
15 | Cc1cc(-c2[nH]c3cc(C(=O)N(C)[C@H]4CNC[C@H]4F)sc3c2C(C)C)cn2ncnc12 [Example 61] | 8.10 | 7.76
16 | CCc1c(-c2cc(C)c3ncnn3c2)[nH]c2cc(C(=O)N3CCNCC3)sc12 [Example 62, [6-ethyl-5-(8-methyl-[1,2,4]triazolo[1,5-a]pyridin-6-yl)-4H-thieno[3,2-b]pyrrol-2-yl]-piperazin-1-yl-methanone] | 8.26 | 8.24
17 | CCc1c(-c2cc(C)c3ncnn3c2)[nH]c2cc(C(=O)N(C)C3CCNCC3)sc12 [Example 63] | 9.15 | 7.81
18 | COc1cc(-c2[nH]c3cc(C(=O)N4CCNCC4)sc3c2C(C)C)cn2ncnc12 [Example 64, (6-isopropyl-5-(8-methoxy-[1,2,4]triazolo[1,5-a]pyridin-6-yl)-4H-thieno[3,2-b]pyrrol-2-yl)(piperazin-1-yl)methanone] | 9.05 | 8.48
19 | Cc1cc(-c2[nH]c3cc(C(=O)N4CCNCC4)sc3c2C(C)C)cn2nnnc12 [Example 65] | 8.74 | 8.27
20 | CC(C)c1c(-c2ccc3ncnn3c2)[nH]c2cc(C(=O)N3CCNCC3)sc12 [Example 66] | 7.59 | 7.79
